Tested on: SUDHL-6 cell line (diffuse large B cell lymphoma)
Assay: SUDHL-6 cell proliferation assay (Example B3)
Format: cell-based
Settings: Homo sapiens, SU-DHL-6, 72 h, SUDHL-6 cells, 3 days, Cell Titer-GLO
Method: Example B3: SUDHL-6 Cell Proliferation Assay
SUDHL-6 cell line (diffuse large B cell lymphoma) was purchased from ATCC (Manassas, Va.) and maintained in the culture medium recommended (RPMI and 10% FBS). To measure the anti-proliferation activity of the compounds through ATP quantitation, the SUDHL-6 cells was plated with the culture medium (5000 cells/well/per 200 μl) into 96-well polystyrene clear black tissue culture plate (Greiner-bio-one through VWR, NJ) in the presence or absence of a concentration range of test compounds. After 3 days, Cell Titer-GLO Luminescent (Promega, Madison, Wis.) cell culture agent was added to each well for 10 minutes at room temperature to stabilize the luminescent signal. This determines the number of viable cells in culture based on quantitation of the ATP present, which signals the presence of metabolically active cells. Luminescence was measured with the TopCount 384 (Packard Bioscience through Perkin Elmer, Boston, Mass.). […] IC50 data for the Examples is presented in Table 4 determined by the assay of Example B3.

IC50 [nM] | Structure (SMILES)
≤ 500 | Cc1nn(C(C)c2cc(Cl)c(F)c3c2OC(C)CN(C2CN(C(=O)OC(C)(C)C)C2)C3)c2ncnc(N)c12 (single isomer, unassigned) [Example 26, tert-Butyl 3-[9-[1-(4-amino-3-methyl-1H-pyrazolo[3,4-d]pyrimidin-1-yl)ethyl]-7-chloro-6-fluoro-2-methyl-2,3-dihydro-1,4-benzoxazepin-4(5H)-yl]azetidine-1-carboxylate]
≤ 500 | Cc1nn(C(C)c2cc(Cl)c(F)c3c2OC[C@H](C)N(S(C)(=O)=O)C3)c2ncnc(N)c12 (single isomer, unassigned) [Example 35]
≤ 500 | Cc1nn(C(C)c2cc(Cl)c(F)c3c2O[C@@H](C)CN(C2CC(C(N)=O)C2)C3)c2ncnc(N)c12 (single isomer, unassigned) [Example 44]
500 to 1000 | CC(=O)N1CC(N2Cc3c(C#N)c(Cl)cc(C(C)n4nc(C)c5c(N)ncnc54)c3OC(C)C2)C1 (single isomer, unassigned) [Example 48, 4-(1-Acetylazetidin-3-yl)-9-[1-(4-amino-3-methyl-1H-pyrazolo [3,4-d]pyrimidin-1-yl)ethyl]-7-chloro-2-methyl-2,3,4,5-tetrahydro-1,4-benzoxazepine-6-carbonitrile]
≤ 500 | Cc1nn(C(C)c2cc(Cl)c(C#N)c3c2OC(C)CN(C2CN(CC(N)=O)C2)C3)c2ncnc(N)c12 (single isomer, unassigned) [Example 50, 2-{3-[9-[1-(4-Amino-3-methyl-1H-pyrazolo[3,4-d]pyrimidin-1-yl)ethyl]-7-chloro-6-cyano-2-methyl-2,3-dihydro-1,4-benzoxazepin-4(5H)-yl]azetidin-1-yl}acetamide]
≤ 500 | Cc1nn(C(C)c2cc(Cl)c(C#N)c3c2OC(C)CN(C2CN(CC(N)=O)C2)C3)c2ncnc(N)c12 (single isomer, unassigned) [Example 53, 2-{3-[9-[1-(4-Amino-3-methyl-1H-pyrazolo[3,4-d]pyrimidin-1-yl)ethyl]-7-chloro-6-cyano-2-methyl-2,3-dihydro-1,4-benzoxazepin-4(5H)-yl]azetidin-1-yl}acetamide]
≤ 500 | Cc1nn(C(C)c2cc(Cl)c(C#N)c3c2OC(C)CN(C2CN(CC(C)(C)O)C2)C3)c2ncnc(N)c12 (single isomer, unassigned) [Example 54, 9-[1-(4-Amino-3-methyl-1H-pyrazolo[3,4-d]pyrimidin-1-yl)ethyl]-7-chloro-4-[1-(2-hydroxy-2-methylpropyl)azetidin-3-yl]-2-methyl-2,3,4,5-tetrahydro-1,4-benzoxazepine-6-carbonitrile]
≤ 500 | Cc1nn(C(C)c2cc(Cl)c(C#N)c3c2OC(C)CN(Cc2cccnc2)C3)c2ncnc(N)c12 (single isomer, unassigned) [Example 60, 9-[1-(4-Amino-3-methyl-1H-pyrazolo[3,4-d]pyrimidin-1-yl)ethyl]-7-chloro-2-methyl-4-(pyridin-3-ylmethyl)-2,3,4,5-tetrahydro-1,4-benzoxazepine-6-carbonitrile]
≤ 500 | Cc1nn(C(C)c2cc(Cl)c(C#N)c3c2OC(C)CN(CC(C)(C)O)C3)c2ncnc(N)c12 (single isomer, unassigned) [Example 65, 9-[1-(4-Amino-3-methyl-1H-pyrazolo[3,4-d]pyrimidin-1-yl)ethyl]-7-chloro-4-(2-hydroxy-2-methylpropyl)-2-methyl-2,3,4,5-tetrahydro-1,4-benzoxazepine-6-carbonitrile]
≤ 500 | CC(=O)NC1CC(N2Cc3c(C#N)c(Cl)cc(C(C)n4nc(C)c5c(N)ncnc54)c3OC(C)C2)C1 (single isomer, unassigned) [Example 67, N-{3-[9-[1-(4-Amino-3-methyl-1H-pyrazolo[3,4-d]pyrimidin-1-yl)ethyl]-7-chloro-6-cyano-2-methyl-2,3-dihydro-1,4-benzoxazepin-4(5H)-yl]cyclobutyl}acetamide]
≤ 500 | CCC1CN(CCO)Cc2c(C#N)c(Cl)cc(C(C)n3nc(C)c4c(N)ncnc43)c2O1 (single isomer, unassigned) [Example 69, 9-[1-(4-Amino-3-methyl-1H-pyrazolo[3,4-d]pyrimidin-1-yl)ethyl]-7-chloro-2-ethyl-4-(2-hydroxyethyl)-2,3,4,5-tetrahydro-1,4-benzoxazepine-6-carbonitrile]
≤ 500 | Cc1nn(C(C)c2cc(Cl)c(F)c3c2OC(C)CN(C[C@@H](C)O)C3)c2ncnc(N)c12 (single isomer, unassigned) [Example 78]
≤ 500 | COC(=O)N1CC(N2Cc3c(F)c(Cl)cc(C(C)n4nc(C)c5c(N)ncnc54)c3OC(C)C2)C1 (single isomer, unassigned) [Example 80, methyl 3-[9-[1-(4-amino-3-methyl-1H-pyrazolo[3,4-d]pyrimidin-1-yl)ethyl]-7-chloro-6-fluoro-2-methyl-2,3-dihydro-1,4-benzoxazepin-4(5H)-yl]azetidine-1-carboxylate]
≤ 500 | Cc1nn(C(C)c2cc(Cl)c(F)c3c2OC(C)CN(C2CN(S(N)(=O)=O)C2)C3)c2ncnc(N)c12 (single isomer, unassigned) [Example 82, 3-[9-[1-(4-amino-3-methyl-1H-pyrazolo[3,4-d]pyrimidin-1-yl)ethyl]-7-chloro-6-fluoro-2-methyl-2,3-dihydro-1,4-benzoxazepin-4(5H)-yl]azetidine-1-sulfonamide]
≤ 500 | Cc1nn(C(C)c2cc(Cl)c(F)c3c2OC(C)CN(C2CN(C(N)=O)C2)C3)c2ncnc(N)c12 (single isomer, unassigned) [Example 83, 3-[9-[1-(4-amino-3-methyl-1H-pyrazolo[3,4-d]pyrimidin-1-yl)ethyl]-7-chloro-6-fluoro-2-methyl-2,3-dihydro-1,4-benzoxazepin-4(5H)-yl]azetidine-1-carboxamide]
≤ 500 | Cc1nn(C(C)c2cc(Cl)c(F)c3c2O[C@@H](C)CN(C2CN(CC(N)=O)C2)C3)c2ncnc(N)c12 (single isomer, unassigned) [Example 88]
≤ 500 | Cc1nn(C(C)c2cc(Cl)c(C#N)c3c2OC(C)CN(C2CN(S(C)(=O)=O)C2)C3)c2ncnc(N)c12 (single isomer, unassigned) [Example 93, 9-[1-(4-amino-3-methyl-1H-pyrazolo[3,4-d]pyrimidin-1-yl)ethyl]-7-chloro-2-methyl-4-[1-(methylsulfonyl)azetidin-3-yl]-2,3,4,5-tetrahydro-1,4-benzoxazepine-6-carbonitrile]
≤ 500 | CCC(=O)N1CC(N2Cc3c(C#N)c(Cl)cc(C(C)n4nc(C)c5c(N)ncnc54)c3OC(C)C2)C1 (single isomer, unassigned) [Example 95, 9-[1-(4-amino-3-methyl-1H-pyrazolo[3,4-d]pyrimidin-1-yl)ethyl]-7-chloro-2-methyl-4-(1-propionylazetidin-3-yl)-2,3,4,5-tetrahydro-1,4-benzoxazepine-6-carbonitrile]

Same assay, conditions: SUDHL-6 cells, 3 days, Cell Titer-GLO

IC50 [nM] | Structure (SMILES)
≤ 500 | Cc1nn(C(C)c2cc(Cl)c(C#N)c3c2OC(C)CN(C2CN(CC(C)(C)O)C2)C3)c2ncnc(N)c12 (single isomer, unassigned) [Example 55, 9-[1-(4-Amino-3-methyl-1H-pyrazolo[3,4-d]pyrimidin-1-yl)ethyl]-7-chloro-4-[1-(2-hydroxy-2-methylpropyl)azetidin-3-yl]-2-methyl-2,3,4,5-tetrahydro-1,4-benzoxazepine-6-carbonitrile]
≤ 500 | Cc1nn(C(C)c2cc(Cl)c(C#N)c3c2OC(C)CN(CC(C)(C)O)C3)c2ncnc(N)c12 (single isomer, unassigned) [Example 66, 9-[1-(4-Amino-3-methyl-1H-pyrazolo[3,4-d]pyrimidin-1-yl)ethyl]-7-chloro-4-(2-hydroxy-2-methylpropyl)-2-methyl-2,3,4,5-tetrahydro-1,4-benzoxazepine-6-carbonitrile]
≤ 500 | CC(=O)NC1CC(N2Cc3c(C#N)c(Cl)cc(C(C)n4nc(C)c5c(N)ncnc54)c3OC(C)C2)C1 (single isomer, unassigned) [Example 68, N-{3-[9-[1-(4-Amino-3-methyl-1H-pyrazolo[3,4-d]pyrimidin-1-yl)ethyl]-7-chloro-6-cyano-2-methyl-2,3-dihydro-1,4-benzoxazepin-4(5H)-yl]cyclobutyl}acetamide]
≤ 500 | CCC1CN(CCO)Cc2c(C#N)c(Cl)cc(C(C)n3nc(C)c4c(N)ncnc43)c2O1 (single isomer, unassigned) [Example 70, 9-[1-(4-Amino-3-methyl-1H-pyrazolo[3,4-d]pyrimidin-1-yl)ethyl]-7-chloro-2-ethyl-4-(2-hydroxyethyl)-2,3,4,5-tetrahydro-1,4-benzoxazepine-6-carbonitrile]
≤ 500 | Cc1nn(C(C)c2cc(Cl)c(F)c3c2OC(C)CN(C2CN(C(N)=O)C2)C3)c2ncnc(N)c12 (single isomer, unassigned) [Example 84, 3-[9-[1-(4-amino-3-methyl-1H-pyrazolo[3,4-d]pyrimidin-1-yl)ethyl]-7-chloro-6-fluoro-2-methyl-2,3-dihydro-1,4-benzoxazepin-4(5H)-yl]azetidine-1-carboxamide]
≤ 500 | Cc1nn(C(C)c2cc(Cl)c(C#N)c3c2OC(C)CN(C2CN(S(C)(=O)=O)C2)C3)c2ncnc(N)c12 (single isomer, unassigned) [Example 94, 9-[1-(4-amino-3-methyl-1H-pyrazolo[3,4-d]pyrimidin-1-yl)ethyl]-7-chloro-2-methyl-4-[1-(methylsulfonyl)azetidin-3-yl]-2,3,4,5-tetrahydro-1,4-benzoxazepine-6-carbonitrile]
